ChEMBL document CHEMBL5291721, “A preclinical secondary pharmacology resource illuminates target-adverse drug reaction associations of marketed drugs” (Nat Commun, 2023)

Key:
Adenosine receptor A2a = Adenosine receptor A2a (Homo sapiens, UniProt P29274)
[1] = target: Gamma-aminobutyric acid receptor subunit alpha-1 (Rattus norvegicus, UniProt P62813)
[2] = target: T1, Alpha-2C adrenergic receptor (Homo sapiens, UniProt P18825); format: functional
T1 sequence (P18825 whole entry): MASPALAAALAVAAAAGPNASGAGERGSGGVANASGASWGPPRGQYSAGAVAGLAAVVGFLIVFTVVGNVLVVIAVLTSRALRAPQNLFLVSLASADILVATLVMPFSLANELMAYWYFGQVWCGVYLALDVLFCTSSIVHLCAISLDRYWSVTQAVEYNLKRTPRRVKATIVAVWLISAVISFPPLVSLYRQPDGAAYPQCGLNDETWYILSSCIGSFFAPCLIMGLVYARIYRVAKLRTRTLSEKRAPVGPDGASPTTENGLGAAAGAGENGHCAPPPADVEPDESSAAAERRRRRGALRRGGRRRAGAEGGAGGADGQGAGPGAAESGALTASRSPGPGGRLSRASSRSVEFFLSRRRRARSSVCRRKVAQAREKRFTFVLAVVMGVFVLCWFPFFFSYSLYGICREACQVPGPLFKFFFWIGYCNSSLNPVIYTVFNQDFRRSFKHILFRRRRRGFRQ

Adenosine receptor A1 = target: T2, Adenosine receptor A1 (Homo sapiens, UniProt P30542)
T2 sequence (P30542 whole entry): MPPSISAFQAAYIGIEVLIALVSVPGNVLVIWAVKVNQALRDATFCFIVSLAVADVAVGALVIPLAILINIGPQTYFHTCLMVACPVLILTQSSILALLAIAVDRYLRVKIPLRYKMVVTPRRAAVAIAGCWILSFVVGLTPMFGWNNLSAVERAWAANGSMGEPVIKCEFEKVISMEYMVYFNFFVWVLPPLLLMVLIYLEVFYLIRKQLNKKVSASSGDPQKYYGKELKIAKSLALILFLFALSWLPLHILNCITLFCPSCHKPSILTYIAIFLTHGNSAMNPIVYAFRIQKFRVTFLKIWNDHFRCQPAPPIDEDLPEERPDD

[3] = target: T3, Cholecystokinin receptor type A (Homo sapiens, UniProt P32238)
T3 sequence (P32238 whole entry): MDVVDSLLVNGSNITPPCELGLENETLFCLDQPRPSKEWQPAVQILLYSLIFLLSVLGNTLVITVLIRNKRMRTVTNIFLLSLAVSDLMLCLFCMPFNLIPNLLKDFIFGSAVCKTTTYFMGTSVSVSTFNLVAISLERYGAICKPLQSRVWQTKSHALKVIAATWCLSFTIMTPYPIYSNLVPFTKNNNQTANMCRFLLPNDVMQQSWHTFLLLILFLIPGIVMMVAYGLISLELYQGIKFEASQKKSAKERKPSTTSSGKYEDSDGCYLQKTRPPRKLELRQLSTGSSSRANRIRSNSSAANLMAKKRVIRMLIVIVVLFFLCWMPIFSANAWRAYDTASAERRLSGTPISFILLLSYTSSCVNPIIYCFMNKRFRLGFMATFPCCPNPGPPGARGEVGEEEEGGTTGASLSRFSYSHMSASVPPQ

[4] = target: T4, Type-1 angiotensin II receptor (Homo sapiens, UniProt P30556)
T4 sequence (P30556 whole entry): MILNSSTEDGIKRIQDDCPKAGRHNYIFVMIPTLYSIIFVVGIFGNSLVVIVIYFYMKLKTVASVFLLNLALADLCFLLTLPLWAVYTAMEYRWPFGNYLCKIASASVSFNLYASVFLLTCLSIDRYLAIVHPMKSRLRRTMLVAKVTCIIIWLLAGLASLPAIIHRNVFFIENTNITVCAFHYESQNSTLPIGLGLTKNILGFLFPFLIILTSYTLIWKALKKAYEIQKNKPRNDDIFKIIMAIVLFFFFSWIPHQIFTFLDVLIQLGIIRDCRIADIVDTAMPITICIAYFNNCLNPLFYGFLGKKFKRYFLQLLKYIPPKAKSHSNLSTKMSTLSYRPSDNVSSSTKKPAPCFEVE

[5] = target: T5, Alpha-2B adrenergic receptor (Homo sapiens, UniProt P18089)
T5 sequence (P18089 whole entry): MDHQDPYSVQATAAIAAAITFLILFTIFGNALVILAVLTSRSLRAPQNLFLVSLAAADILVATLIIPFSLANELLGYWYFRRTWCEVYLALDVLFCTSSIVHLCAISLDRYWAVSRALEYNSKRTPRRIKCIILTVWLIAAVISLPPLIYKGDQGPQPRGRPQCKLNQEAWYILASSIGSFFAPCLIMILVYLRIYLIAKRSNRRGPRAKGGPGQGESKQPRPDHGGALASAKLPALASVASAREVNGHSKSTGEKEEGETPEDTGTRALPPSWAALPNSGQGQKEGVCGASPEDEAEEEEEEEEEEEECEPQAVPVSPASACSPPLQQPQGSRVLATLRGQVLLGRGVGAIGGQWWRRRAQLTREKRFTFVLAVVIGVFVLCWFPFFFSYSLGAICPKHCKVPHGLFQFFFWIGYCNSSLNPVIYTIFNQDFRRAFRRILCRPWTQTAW

Adenosine receptor A3 = target: T6, Adenosine receptor A3 (Homo sapiens, UniProt P0DMS8)
T6 sequence (P0DMS8 whole entry): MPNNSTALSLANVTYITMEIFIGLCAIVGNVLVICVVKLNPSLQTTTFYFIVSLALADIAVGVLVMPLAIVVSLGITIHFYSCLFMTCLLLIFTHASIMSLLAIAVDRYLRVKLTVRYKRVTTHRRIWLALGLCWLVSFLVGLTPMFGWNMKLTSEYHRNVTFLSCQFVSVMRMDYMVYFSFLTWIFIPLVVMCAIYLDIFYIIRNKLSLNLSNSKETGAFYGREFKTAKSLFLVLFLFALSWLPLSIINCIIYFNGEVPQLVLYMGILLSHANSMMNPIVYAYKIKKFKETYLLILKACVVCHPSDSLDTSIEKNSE

[6] = target: T7, Neuropeptide Y receptor type 1 (Homo sapiens, UniProt P25929)
T7 sequence (P25929 whole entry): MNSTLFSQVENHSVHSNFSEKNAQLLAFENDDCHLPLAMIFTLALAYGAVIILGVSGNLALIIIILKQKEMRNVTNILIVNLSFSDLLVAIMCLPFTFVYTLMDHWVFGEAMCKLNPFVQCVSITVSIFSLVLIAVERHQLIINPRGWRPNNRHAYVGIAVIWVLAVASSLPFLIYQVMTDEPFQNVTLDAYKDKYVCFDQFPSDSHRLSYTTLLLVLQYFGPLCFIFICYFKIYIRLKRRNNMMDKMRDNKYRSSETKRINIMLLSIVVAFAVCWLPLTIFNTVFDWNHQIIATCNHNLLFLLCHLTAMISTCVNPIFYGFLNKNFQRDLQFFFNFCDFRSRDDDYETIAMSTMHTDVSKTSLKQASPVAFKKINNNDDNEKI
Also: assay procedure not described here.

Chain of Gamma-aminobutyric acid receptor subunit alpha-1 (P62813 whole entry): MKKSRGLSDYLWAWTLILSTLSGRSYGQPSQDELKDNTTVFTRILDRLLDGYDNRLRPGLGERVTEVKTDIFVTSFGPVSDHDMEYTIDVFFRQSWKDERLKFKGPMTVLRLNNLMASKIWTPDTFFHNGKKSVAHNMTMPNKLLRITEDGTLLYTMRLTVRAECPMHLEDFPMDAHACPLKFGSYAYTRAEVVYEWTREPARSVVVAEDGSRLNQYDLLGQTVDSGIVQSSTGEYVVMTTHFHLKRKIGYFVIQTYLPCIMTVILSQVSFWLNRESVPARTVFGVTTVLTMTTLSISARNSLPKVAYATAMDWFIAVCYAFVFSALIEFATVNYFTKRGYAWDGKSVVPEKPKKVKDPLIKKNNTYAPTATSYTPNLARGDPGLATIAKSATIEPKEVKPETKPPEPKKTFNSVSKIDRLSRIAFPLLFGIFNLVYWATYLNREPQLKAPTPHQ
Chain of Adenosine receptor A2a (P29274 whole entry): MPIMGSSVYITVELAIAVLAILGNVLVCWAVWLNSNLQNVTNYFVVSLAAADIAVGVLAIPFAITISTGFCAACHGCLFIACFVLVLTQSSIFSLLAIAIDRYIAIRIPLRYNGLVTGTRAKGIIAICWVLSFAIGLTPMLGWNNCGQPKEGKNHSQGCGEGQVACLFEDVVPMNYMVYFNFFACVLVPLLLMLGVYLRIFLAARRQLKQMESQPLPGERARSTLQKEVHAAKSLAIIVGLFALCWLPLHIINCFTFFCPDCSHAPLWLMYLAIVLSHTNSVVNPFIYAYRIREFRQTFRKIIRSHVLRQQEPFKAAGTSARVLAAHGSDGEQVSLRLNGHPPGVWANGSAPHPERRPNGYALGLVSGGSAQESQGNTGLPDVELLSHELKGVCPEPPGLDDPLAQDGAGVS

Row | SMILES | AC50 (Adenosine receptor A2a) [µM] | AC50 [1] [µM] | AC50 [2] [µM] | AC50 (Adenosine receptor A1) [µM] | AC50 [3] [µM] | AC50 [4] [µM] | AC50 [5] [µM] | AC50 (Adenosine receptor A3) [µM] | AC50 [6] [µM]
1 | CN1CCCN=C1/C=C/c1cccc(O)c1 [OXANTEL] | > 30 | > 30 | > 30 | > 30 | > 30 | > 30 | > 30 | 22 | > 30
2 | CC1NCCOC1c1ccccc1 (stereo unspecified) [PHENMETRAZINE] | > 30 | > 10 | > 10 | > 30 | > 30 | > 30 | > 10 | > 30 | > 30
3 | CC(C)(N)Cc1ccccc1 [PHENTERMINE] | > 30 | > 10 | > 10 | > 30 | > 30 | > 30 | > 10 | > 30 | > 30
4 | CCOC(=O)O[C@]1(C(=O)COC(=O)CC)CC[C@H]2[C@@H]3CCC4=CC(=O)C=C[C@]4(C)[C@H]3[C@@H](O)C[C@@]21C [PREDNICARBATE] | > 10 | > 10 | > 10 | > 10 | > 10 | > 10 | > 10 | > 10 | > 10
5 | CCC(=O)[C@@]1(C)[C@H](C)C[C@H]2[C@@H]3CCC4=CC(=O)C=C[C@]4(C)[C@H]3[C@@H](O)C[C@@]21C [RIMEXOLONE] | > 10 | > 10 | > 10 | > 10 | > 10 | > 10 | > 10 | > 10 | > 10
6 | CS(=O)(=O)NC(=O)CCC/C=C\C[C@H]1C(=O)C[C@@H](O)[C@@H]1/C=C/[C@@H](O)COc1ccccc1 [SULPROSTONE] | > 30 | > 30 | > 30 | > 30 | > 30 | > 30 | > 30 | > 30 | > 30
7 | CCCCOC(=O)C(=O)Nc1cccc(-c2nnn[nH]2)c1 [TAZANOLAST] | > 30 | > 30 | > 30 | > 30 | > 30 | > 30 | > 30 | > 30 | > 30
8 | CC(C(=O)O)c1ccc(C(=O)c2ccccc2)s1 (stereo unspecified) [TIAPROFENIC ACID] | > 10 | > 10 | 15 | > 10 | > 10 | > 10 | > 10 | > 10 | > 10
9 | CCCCC[C@H](O)CC[C@@H]1[C@H]2Cc3cccc(OCC(=O)O)c3C[C@H]2C[C@H]1O [TREPROSTINIL] | > 30 | > 30 | > 30 | > 30 | > 30 | > 30 | > 30 | > 30 | > 30
